This is an account of results in patent US7294635B2 (Portola Pharmaceuticals, Inc., priority 2003, dated 2007).

A value given as a limit tells only on which side of the number the result lay.

In this assay the test system is ADP-induced human platelet aggregation. Put plainly: Inhibition of ADP-mediated platelet aggregation in vitro using platelet-rich plasma (PRP assay). The assay is classed as cell-based. The following applies: 5 min; human platelet-rich plasma, 2 μM ADP, 96-well microtiter, OD 650 nm at 5 min; read-out: Activity in the PRP assay. As for the experimental part: This Example Provides an Assay for the Inhibition of ADP-Mediated Platelet Aggregation In Vitro Using Platelet-Rich Plasma (PRP)
Platelet-rich plasma (PRP) is prepared by centrifugation at 160×g for 20 minutes at room temperature. PRP is collected, and the platelet concentration is determined using a Coulter counter or hemocytometer (platelet concentration should be 2-4×10^8 platelets per mL).
Inhibition of ADP-dependent aggregation is preferably determined in 96-well flat-bottom microtiter plates using a microtiter plate shaker and plate reader similar to the procedure described by Frantantoni et al., Am. J. Clin. Pathol. […] All steps are performed at room temperature. The total reaction volume of 0.2 mL/well includes: PRP (˜6×10^7 total platelets in the presence of plasma), serial dilutions of test compounds (buffer for control wells) in 0.6% DMSO. After about 5 minutes preincubation at room temperature, ADP is added to a final concentration of 2 μM which induces submaximal aggregation. Buffer is added instead of ADP to one set of control wells (ADP-control). The OD of the samples is then determined at 650 nm using a microtiter plate reader (Softmax, Molecular Devices, Menlo Park, Calif.) resulting in the 0 minute reading. The plates are then agitated for 5 min on a microtiter plate shaker and the 5 minute reading is obtained in the plate reader. Aggregation is calculated from the decrease of OD at 650 nm at t=5 minutes compared to t=0 minutes and is expressed as % of the decrease in the ADP control samples after correcting for changes in the unaggregated control samples.

Consider `CNc1cc2ccn(-c3cnc(NC(=O)NS(=O)(=O)c4ccc(Cl)s4)c(C)c3)c(=O)c2cc1F` [Example 60, 5-chloro-N-[({5-[7-fluoro-6-(methylamino)-1-oxoisoquinolin-2(1H)-yl]-3-methylpyridin-2-yl}amino)carbonyl]thiophene-2-sulfonamide], for which the IC50 was < 10 µM.

On to `CNc1cc2ccn(-c3ccc(NC(=O)NS(=O)(=O)c4ccc(Cl)s4)cc3CO)c(=O)c2cc1F` [Example 63, 5-chloro-N-({[4-[7-fluoro-6-(methylamino)-1-oxoisoquinolin-2(1H)-yl]-3-(hydroxymethyl)phenyl]amino}carbonyl)thiophene-2-sulfonamide], for which the IC50 is < 10 µM.

As for `CNc1cc2ccn(-c3ccc(NC(=O)NS(=O)(=O)c4ccccc4)cc3)c(=O)c2cc1F` [Example 42], the IC50 is < 10 µM. Next, `CNc1cc2ccn(-c3ccc(NC(=O)NS(=O)(=O)c4ccc(Cl)s4)c(OCOC)c3)c(=O)c2cc1F` [Example 76, 5-chloro-N-({[4-[7-fluoro-6-(methylamino)-1-oxoisoquinolin-2(1H)-yl]-2-(methoxymethoxy)phenyl]amino}carbonyl)thiophene-2-sulfonamide]: < 10 µM. Next, `CNc1cc2ccn(-c3ccc(NC(=O)NS(=O)(=O)c4cc(C(F)F)cs4)cc3)c(=O)c2cc1F` [Example 39]: 10 to 30 µM; `CNc1cc2ccn(-c3ccc(NC(=O)NS(=O)(=O)c4ccc(Cl)s4)c(F)c3)c(=O)c2cc1F` [Example 58, 5-chloro-N-[({2-fluoro-4-[7-fluoro-6-(methylamino)-1-oxoisoquinolin-2(1H)-yl]phenyl}amino)carbonyl]thiophene-2-sulfonamide]: < 10 µM; `CNc1cc2ccn(-c3ccc(NC(=O)NS(=O)(=O)c4cc(C)cs4)cc3)c(=O)c2cc1F` [Example 38]: < 10 µM. With `CNc1cc2ccn(-c3ccc(NC(=O)NS(=O)(=O)c4ccc(Cl)s4)cn3)c(=O)c2cc1F` [Example 54, 5-chloro-N-[({6-[7-fluoro-6-(methylamino)-1-oxoisoquinolin-2(1H)-yl]pyridin-3-yl}amino)carbonyl]thiophene-2-sulfonamide], the IC50 was < 10 µM. Next, `CNc1cc2ccn(-c3ccc(NC(=O)NS(=O)(=O)c4ccc(Cl)s4)cc3Br)c(=O)c2cc1F` [Example 51, N-[({3-bromo-4-[7-fluoro-6-(methylamino)-1-oxoisoquinolin-2(1H)-yl]phenyl}amino)carbonyl]-5-chlorothiophene-2-sulfonamide]: < 10 µM; `CNc1cc2ccn(-c3ccc(NC(=O)NS(=O)(=O)c4sccc4Cl)cc3)c(=O)c2cc1F` [Example 40]: > 30 µM; `CNc1cc2ccn(-c3ccc(NC(=O)NS(=O)(=O)c4cc(Cl)cs4)cc3)c(=O)c2cc1F` [Example 37]: < 10 µM. Next, `CNc1cc2ccn(-c3ccc(NC(=O)NS(=O)(=O)c4ccc(Cl)s4)c(C(=O)OC)c3)c(=O)c2cc1F` [Example 98, methyl 2-[({[(5-chlorothien-2-yl)sulfonyl]amino}carbonyl)amino]-5-[7-fluoro-6-(methylamino)-1-oxoisoquinolin-2(1H)-yl]benzoate]: < 10 µM; `CNc1cc2ccn(-c3ccc(NC(=O)NS(=O)(=O)c4cccs4)cc3)c(=O)c2cc1F` [Example 27, N-[({4-[7-fluoro-6-(methylamino)-1-oxoisoquinolin-2(1H)-yl]phenyl}amino)carbonyl]thiophene-2-sulfonamide]: < 10 µM.

`C#CCNc1cc2ccn(-c3ccc(NC(=O)NS(=O)(=O)c4ccc(Cl)s4)cc3)c(=O)c2cc1F` [Example 22, 5-chloro-N-[({4-[7-fluoro-1-oxo-6-(prop-2-ynylamino)isoquinolin-2(1H)-yl]phenyl}amino)carbonyl]thiophene-2-sulfonamide]: the IC50 is < 10 µM. Next, `CCCc1ccc(S(=O)(=O)NC(=O)Nc2ccc(-n3ccc4cc(NC)c(F)cc4c3=O)cc2)s1` [Example 31]: 10 to 30 µM; `CNc1cc2ccn(-c3ccc(NC(=O)NS(=O)(=O)c4ccc(Cl)s4)c(OCC4CC4)c3)c(=O)c2cc1F` [Example 86, 5-chloro-N-[({2-(cyclopropylmethoxy)-4-[7-fluoro-6-(methylamino)-1-oxoisoquinolin-2(1H)-yl]phenyl}amino)carbonyl]thiophene-2-sulfonamide]: < 10 µM. On to `CNc1cc2ccn(-c3ccc(NC(=O)NS(=O)(=O)c4ccc(Cl)s4)c(C4CC4)c3)c(=O)c2cc1F` [Example 94, 5-chloro-N-[({2-cyclopropyl-4-[7-fluoro-6-(methylamino)-1-oxoisoquinolin-2(1H)-yl]phenyl}amino)carbonyl]thiophene-2-sulfonamide], for which the IC50 was < 10 µM. The result for `CNc1cc2ccn(-c3ccc(NC(=O)NS(=O)(=O)c4ccc(C(F)F)s4)cc3)c(=O)c2cc1F` [Example 32] reads < 10 µM; that for `CNc1cc2ccn(-c3ccc(NC(=O)NS(=O)(=O)c4ccc(Cl)s4)c(C(F)F)c3)c(=O)c2cc1F` [Example 85, 5-chloro-N-[({2-(difluoromethyl)-4-[7-fluoro-6-(methylamino)-1-oxoisoquinolin-2(1H)-yl]phenyl}amino)carbonyl]thiophene-2-sulfonamide], < 10 µM; that for `CNc1c(F)cc2c(=O)n(-c3ccc(NC(=O)NS(=O)(=O)c4ccc(Cl)s4)cc3)ccc2c1C` [Example 120, 5-chloro-N-[({4-[7-fluoro-5-methyl-6-(methylamino)-1-oxoisoquinolin-2(1H)-yl]phenyl}amino)carbonyl]thiophene-2-sulfonamide], < 10 µM. Consider `CNc1cc2ccn(-c3cnc(NC(=O)NS(=O)(=O)c4ccc(Cl)s4)nc3)c(=O)c2cc1F` [Example 61, 5-chloro-N-[({5-[7-fluoro-6-(methylamino)-1-oxoisoquinolin-2(1H)-yl]pyrimidin-2-yl}amino)carbonyl]thiophene-2-sulfonamide], for which the IC50 was < 10 µM. For the compound `O=C(Nc1ccc(-n2ccc3cc(NCc4ccc(Cl)cc4)c(F)cc3c2=O)cc1)NS(=O)(=O)c1ccc(Cl)s1` [Example 23, 5-chloro-N-[({4-[6-[(4-chlorobenzyl)amino]-7-fluoro-1-oxoisoquinolin-2(1H)-yl]phenyl}amino)carbonyl]thiophene-2-sulfonamide], the IC50 was < 10 µM.

For `CCCCNc1cc(-n2ccc3cc(NC)c(F)cc3c2=O)ccc1NC(=O)NS(=O)(=O)c1ccc(Cl)s1` [Example 80, N-[({2-(butylamino)-4-[7-fluoro-6-(methylamino)-1-oxoisoquinolin-2(1H)-yl]phenyl}amino)carbonyl]-5-chlorothiophene-2-sulfonamide], the IC50 is > 30 µM.

Consider `O=C(Nc1ccc(-n2ccc3cc(NCC(F)(F)F)c(F)cc3c2=O)cc1)NS(=O)(=O)c1ccc(Cl)s1` [Example 21, 5-chloro-N-[({4-[7-fluoro-1-oxo-6-[(2,2,2-trifluoroethyl)amino]isoquinolin-2(1H)-yl]phenyl}amino)carbonyl]thiophene-2-sulfonamide], for which the IC50 is 10 to 30 µM. `CNc1cc2ccn(-c3ccc(NC(=O)NS(=O)(=O)c4ccc(Cl)s4)c(OC(C)C)c3)c(=O)c2cc1F` [Example 84, 5-chloro-N-[({4-[7-fluoro-6-(methylamino)-1-oxoisoquinolin-2(1H)-yl]-2-isopropoxyphenyl}amino)carbonyl]thiophene-2-sulfonamide]: the IC50 is 10 to 30 µM.

In the case of `CNc1cc2ccn(-c3ccc(NC(=O)NS(=O)(=O)c4ccc(Cl)s4)c(OCCN(C)C)c3)c(=O)c2cc1F` [Example 93, 5-chloro-N-[({2-[2-(dimethylamino)ethoxy]-4-[7-fluoro-6-(methylamino)-1-oxoisoquinolin-2(1H)-yl]phenyl}amino)carbonyl]thiophene-2-sulfonamide], the IC50 was < 10 µM. The result for `CNc1cc2ccn(-c3ccc(NC(=O)NS(=O)(=O)c4ccc(Cl)s4)c(OC(F)(F)F)c3)c(=O)c2cc1F` [Example 87, 5-chloro-N-({[4-[7-fluoro-6-(methylamino)-1-oxoisoquinolin-2(1H)-yl]-2-(trifluoromethoxy)phenyl]amino}carbonyl)thiophene-2-sulfonamide] reads < 10 µM; that for `CN(C)c1cc2ccn(-c3ccc(NC(=O)NS(=O)(=O)c4ccc(Cl)s4)cc3)c(=O)c2cc1F` [Example 26, 5-chloro-N-[({4-[6-(dimethylamino)-7-fluoro-1-oxoisoquinolin-2(1H)-yl]phenyl}amino)carbonyl]thiophene-2-sulfonamide], > 30 µM; that for `CNc1cc2ccn(-c3ccc(NC(=O)NS(=O)(=O)c4ccc(Cl)s4)cc3Cl)c(=O)c2cc1F` [Example 50, 5-chloro-N-[({3-chloro-4-[7-fluoro-6-(methylamino)-1-oxoisoquinolin-2(1H)-yl]phenyl}amino)carbonyl]thiophene-2-sulfonamide], < 10 µM. Regarding `CNc1cc2ccn(-c3ccc(NC(=O)NS(=O)(=O)c4ccc(Cl)s4)nc3)c(=O)c2cc1F` [Example 59, 5-chloro-N-[({5-[7-fluoro-6-(methylamino)-1-oxoisoquinolin-2(1H)-yl]pyridin-2-yl}amino)carbonyl]thiophene-2-sulfonamide], the IC50 was < 10 µM. The result for `CNc1cc2ccn(-c3ccc(NC(=O)NS(=O)(=O)c4ccc(C)s4)cc3)c(=O)c2cc1F` [Example 29] reads < 10 µM.
